The target in the assay is T1, human M4 muscarinic acetylcholine receptor (Homo sapiens, UniProt P08173).
T1 construct: expressed in transfected cells; host or cells: CHO-K1
T1 sequence (P08173 1-479): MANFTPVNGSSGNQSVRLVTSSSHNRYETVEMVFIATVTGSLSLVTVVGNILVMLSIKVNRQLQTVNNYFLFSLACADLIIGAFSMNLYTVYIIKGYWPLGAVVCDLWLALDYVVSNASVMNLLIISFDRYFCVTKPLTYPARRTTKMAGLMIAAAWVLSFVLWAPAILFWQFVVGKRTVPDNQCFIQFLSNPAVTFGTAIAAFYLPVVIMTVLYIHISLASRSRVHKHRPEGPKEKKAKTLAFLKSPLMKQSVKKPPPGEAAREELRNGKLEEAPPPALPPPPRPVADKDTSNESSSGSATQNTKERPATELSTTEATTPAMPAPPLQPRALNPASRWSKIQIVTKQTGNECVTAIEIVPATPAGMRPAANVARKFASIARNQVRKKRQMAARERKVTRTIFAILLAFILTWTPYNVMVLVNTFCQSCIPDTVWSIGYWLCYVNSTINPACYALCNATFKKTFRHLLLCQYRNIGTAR
Briefly: human FLIPR-based M4 PAM assay (CHO-K1 cells with human M4 receptor and Gaqi5, calcium dye fluorescence). Format: cell-based. As to conditions: inflection point (IP) of dose response curve, acetylcholine added at 20% of maximum response, read-out: M4 FLIPPR Hu IP. A digest of the protocol:
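CHO-K1 cells stably expressing human M4 with chimeric Gaqi5, calcium-dye loaded ~1 h at 37° C; compound added at increasing concentrations 4 min before acetylcholine at an EC20 concentration (sometimes a further EC70 addition).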
For the compound `N#Cc1ccc(-c2cnn(CC3(F)CCCC3)c2)c(-c2ccc3c(c2)C(=O)N(C2CC2)C3)n1` [Example 40, 6-(2-cyclopropyl-3-oxoisoindolin-5-yl)-5-(1-((1-fluorocyclopentyl)methyl)-1H-pyrazol-4-yl) picolinonitrile], the EC50 stood at 0.013 µM.

As for `N#Cc1ccc(-c2cnn(CC3CCCC3)c2)c(-c2ccc3ccnn3c2)n1` [Example 38, 5-(1-(cyclopentylmethyl)-1H-pyrazol-4-yl)-6-(pyrazolo[1,5-a]pyridin-6-yl)picolinonitrile], the EC50 came to 0.013 µM.

With `CC1(Cn2cc(-c3ccc(C#N)nc3-c3ccn4c(F)cnc4c3)cn2)CCCC1` [Example 74, 6-(3-fluoroimidazo[1,2-a]pyridin-7-yl)-5-(1-((1-methylcyclopentyl)methyl)-1H-pyrazol-4-yl)picolinonitrile], the EC50 was 0.058 µM.

Regarding `Cc1ccc(-c2cnn(C[C@H]3CC[C@@H](F)C3)c2)c(-c2ccc3cccnc3c2)n1` (single isomer, unassigned) [Example 134, 7-(3-(1-(((1S,3R) or (1R,3S)-3-fluorocyclopentyl)methyl)-1H-pyrazol-4-yl)-6-methylpyridin-2-yl)quinoline], the EC50 was found to be 0.026 µM.

On to `N#Cc1ccc(-c2cnn(CC3(F)CCCC3)c2)c(-c2ccn3ncnc3c2)n1` [Example 43, 6-([1,2,4]triazolo[1,5-a]pyridin-7-yl)-5-(1-((1-fluorocyclopentyl)methyl)-1H-pyrazol-4-yl)picolinonitrile], for which the EC50 was 0.029 µM.

For `Cc1cc(-c2cnn(CC3(F)CCCC3)c2)c(-c2ccn3ccnc3c2)nc1F` [Example 94, 7-(6-fluoro-3-(1-((1-fluorocyclopentyl)methyl)-1H-pyrazol-4-yl)-5-methylpyridin-2-yl) imidazo[1,2-a]pyridine], the EC50 worked out at 0.035 µM.

`Cc1ccc(-c2cnn(C[C@@H]3CC[C@H](F)C3)c2)c(-c2ccc3cccnc3c2)n1` (racemic) [Example 31, 7-(3-(1-(((1R,3S and 1S,3R)-3-fluorocyclopentyl)methyl)-1H-pyrazol-4-yl)-6-methylpyridin-2-yl)quinoline]: the EC50 came to 0.029 µM.

For `COc1cnc2cc(-c3nc(C)ccc3-c3cnn(CC4(C)CCCC4)c3)ccc2c1` [Example 10, 3-methoxy-7-(6-methyl-3-(1-((1-methylcyclopentyl)methyl)-1H-pyrazol-4-yl)pyridin-2-yl)quinoline], the EC50 is 0.025 µM.

With `CC1(Cn2cc(-c3c(C#N)ccnc3-c3ccc4cccnc4c3)cn2)CCCC1` [Example 103, 3-(1-((1-methylcyclopentyl)methyl)-1H-pyrazol-4-yl)-2-(quinolin-7-yl)isonicotinonitrile], the EC50 is 0.045 µM.

`COc1nc(-c2ccn3cc(C)nc3c2)c(-c2cnn(CC3(F)CCCC3)c2)cc1F` [Example 114, 7-(5-fluoro-3-(1-((1-fluorocyclopentyl)methyl)-1H-pyrazol-4-yl)-6-methoxypyridin-2-yl)-2-methylimidazo[1,2-a]pyridine]: the EC50 was determined as 0.14 µM.

Consider `COc1cc2ccc(-c3nc(F)ccc3-c3cnn(CC4(C)CCCC4)c3)cc2nn1` [Example 92, 7-(6-fluoro-3-(1-((1-methylcyclopentyl)methyl)-1H-pyrazol-4-yl)pyridin-2-yl)-3-methoxycinnoline], for which the EC50 stood at 0.004 µM.

As for `COc1cc2ccc(-c3nc(C)ccc3-c3cnn(CC4(C)CCC(F)(F)C4)c3)cc2nn1` (single isomer, unassigned) [Example 150, (R or S)-7-(3-(1-((3,3-difluoro-1-methylcyclopentyl)methyl)-1H-pyrazol-4-yl)-6-methylpyridin-2-yl)-3-methoxycinnoline], the EC50 was determined as 0.022 µM.

As to `Cc1ccc(-c2cnn(CC3(F)CCCC3)c2)c(-c2ccc3c(c2)C(=O)N(CC2CC2)C3)n1` [Example 19, 2-(cyclopropylmethyl)-6-(3-(1-((1-fluorocyclopentyl)methyl)-1H-pyrazol-4-yl)-6-methylpyridin-2-yl)isoindolin-1-one], the EC50 came out at 0.02 µM.

As for `Cc1ccc(-c2cnn(CC3CCCC3)c2)c(-c2cnc3c(c2)ncn3C)n1` [Example 7, 6-(3-(1-(cyclopentylmethyl)-1H-pyrazol-4-yl)-6-methylpyridin-2-yl)-3-methyl-3H-imidazo[4,5-b]pyridine], the EC50 was 0.094 µM.

For the compound `Cc1cn2ccc(-c3nc(C#N)ccc3-c3cnn(CC4C[C@@H](F)[C@H](F)C4)c3)cc2n1` [Example 83, 5-(1-(((3R,4R)-3,4-difluorocyclopentyl)methyl)-1H-pyrazol-4-yl)-6-(2-methylimidazo[1,2-a]pyridin-7-yl)picolinonitrile], the EC50 was 0.026 µM.

Turning to `Cc1ccc(-c2cnn(CC3CCC(F)(F)C3)c2)c(-c2ccc3cccnc3c2)n1` (single isomer, unassigned) [Example 130, (R or S)-7-(3-(1-((3,3-difluorocyclopentyl)methyl)-1H-pyrazol-4-yl)-6-methylpyridin-2-yl)quinoline], the EC50 worked out at 0.025 µM.

On to `Cc1cc(-c2cnn(CC3(F)CCCC3)c2)c(-c2cnc3c(c2)C(=O)N(CC2CC2)C3)nc1Cl` [Example 116, 3-(6-chloro-3-(1-((1-fluorocyclopentyl)methyl)-1H-pyrazol-4-yl)-5-methylpyridin-2-yl)-6-(cyclopropylmethyl)-6,7-dihydro-5H-pyrrolo [3,4-b]pyridin-5-one], for which the EC50 turned out to be 0.061 µM.

`Cc1ccc(-c2cnn(CC3(F)CCCC3)c2F)c(-c2ccc3c(c2)ncn3C)n1` [Example 24]: the EC50 worked out at 0.07 µM.

For the compound `Cc1ccc(-c2cnn(CC3CCCC3)c2)c(-c2ccc3c(c2)nc(Cl)n3C)n1` [Example 152, 2-chloro-5-(3-(1-(cyclopentylmethyl)-1H-pyrazol-4-yl)-6-methylpyridin-2-yl)-1-methyl-1H-benzo[d]imidazole], the EC50 was determined as 0.08 µM.

As for `Cc1cnc(-c2ccn3ccnc3c2)c(-c2cnn(CC3(C)CCCC3)c2)c1` [Example 112, 7-(5-methyl-3-(1-((1-methylcyclopentyl)methyl)-1H-pyrazol-4-yl)pyridin-2-yl)imidazo[1,2-a] pyridine], the EC50 worked out at 0.046 µM.

For `Cc1ccc(-c2cnn(CC3CCC(F)(F)C3)c2)c(-c2ccc3cccnc3c2)n1` (single isomer, unassigned) [Example 129, (S or R)-7-(3-(1-((3,3-difluorocyclopentyl)methyl)-1H-pyrazol-4-yl)-6-methylpyridin-2-yl)quinoline], the EC50 came out at 0.022 µM.

Take `Cc1cn2ccc(-c3ncccc3-c3cnn(CC4C[C@@H](F)[C@H](F)C4)c3)cc2n1` [Example 5, 7-(3-(1-(((3R,4R)-3,4-difluorocyclopentyl)methyl)-1H-pyrazol-4-yl)pyridin-2-yl)-2-methylimidazo[1,2-a]pyridine]: the EC50 is 0.087 µM.

`Fc1cnc(-c2ccc3cccnc3c2)c(-c2cnn(CC3(F)CCCC3)c2)c1` [Example 95, 7-(5-fluoro-3-(1-((1-fluorocyclopentyl)methyl)-1H-pyrazol-4-yl)pyridin-2-yl) quinoline]: the EC50 was found to be 0.08 µM.

Regarding `Cc1ccc(-c2cnn(CC3(F)CCCC3)c2F)c(-c2ccc3cccnc3c2)n1` [Example 22, 7-(3-(5-fluoro-1-((1-fluorocyclopentyl)methyl)-1H-pyrazol-4-yl)-6-methylpyridin-2-yl)quinoline], the EC50 turned out to be 0.015 µM.

With `Cc1nc2cc(-c3ncc(F)cc3-c3cnn(CC4C[C@@H](F)[C@H](F)C4)c3)ccc2n1C` [Example 102], the EC50 is 0.232 µM.

Consider `CN1C(=O)c2cc(-c3nc(C#N)ccc3-c3cnn(CC4(F)CCCC4)c3)ccc2C1(C)C` [Example 45, 5-(1-((1-fluorocyclopentyl)methyl)-1H-pyrazol-4-yl)-6-(1,1,2-trimethyl-3-oxoisoindolin-5-yl)picolinonitrile], for which the EC50 is 0.064 µM.

As to `Cn1cnc2cc(-c3nc(C#N)ccc3-c3cnn(CC4C[C@H](F)[C@@H](F)C4)c3)ccc21` [Example 72, 5-(1-(((3S,4S)-3,4-difluorocyclopentyl)methyl)-1H-pyrazol-4-yl)-6-(1-methyl-1H-benzo[d]imidazol-5-yl)picolinonitrile], the EC50 came to 0.041 µM.

Take `N#Cc1ccc(-c2nc(C#N)ccc2-c2cnn(CC3CCCC3)c2)cc1` [Example 160, 6-(4-cyanophenyl)-5-(1-(cyclopentylmethyl)-1H-pyrazol-4-yl)picolinonitrile]: the EC50 was found to be 0.048 µM.

Turning to `Cc1nc2cc(-c3nc(C#N)ccc3-c3cnn(CC4(C)CCCC4)c3)cnc2o1` [Example 80, 5-(1-((1-methylcyclopentyl)methyl)-1H-pyrazol-4-yl)-6-(2-methyloxazolo[5,4-b]pyridin-6-yl)picolinonitrile], the EC50 was 0.065 µM.

Consider `Cc1ccc(-c2cnn(C[C@@H]3CC[C@@H](F)C3)c2)c(-c2ccc3cccnc3c2)n1` (single isomer, unassigned) [Example 132, 7-(3-(1-(((1R,3R) or (1S,3S)-3-fluorocyclopentyl)methyl)-1H-pyrazol-4-yl)-6-methylpyridin-2-yl)quinoline], for which the EC50 came to 0.017 µM.

On to `Cc1cn2ccc(-c3nc(Cl)ccc3-c3cnn(CC4(C)CCCC4)c3)cc2n1` [Example 115, 7-(6-chloro-3-(1-((1-methylcyclopentyl)methyl)-1H-pyrazol-4-yl)pyridin-2-yl)-2-methylimidazo[1,2-a] pyridine], for which the EC50 was 0.021 µM.

The values are drawn from US11149036B2, “3-(1H-pyrazol-4-yl)pyridine allosteric modulators of the M4 muscarinic acetylcholine receptor” (Merck Sharp & Dohme Corp., priority 2017, dated 2021).
